Each structure is given as a SMILES string. Values joined by “and” are separate entries in the source; they are usually repeats but may differ in a detail not shown here. Equal values may be shown once.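 48-hour exposure; five concentrations; linearly interpolated endpoints. GI50 = concentration required for 50% inhibition of growth. TGI marks complete inhibition of growth.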 Bounds are passed on as bounds.

What all share (test): NCI tumour cell line growth inhibition, 48 h
Assay [1] relates to U251 CNS.
In assay [2] the test system is HL-60(TB) leukemia.
The test system of assay [3] is TK-10 renal.
In assay [4] the test system is SF-539 CNS.
The test system of assay [5] is NCI-H226 lung.
The subject of assay [6] is UACC-257 melanoma.
Assay [7] relates to NCI-H460 lung.
The subject of assay [8] is HOP-92 NSCLC.
Assay [9] relates to SR leukemia.
The test system of assay [10] is OVCAR-8 ovarian.

`CCN=C(N)CSS(=O)(=O)O`: the TGI in [1], in assay [2], in assay [3], in assay [4], in [5] and in [6] was more than 100 µM each time. Further, the TGI in assay [7], in assay [8], in assay [9] and in [10] was more than 100 µM throughout.
Consider `O=C(/C=C/c1cccnc1)/C=C/c1cccnc1`, for which the GI50 in [1] is 0.547 µM; in [2], 0.707 µM; in assay [3], 3.11 µM; in assay [4], 1.75 µM; in assay [5], 5.1 µM; in assay [6], 7.63 µM. In addition, the GI50 was 2.5 µM in [7], 2.33 µM in assay [8], 0.196 µM in assay [9] and 3.56 µM in [10]. Besides, the TGI was 1.78 µM in [1]; 10.4 µM in assay [3]; 3.62 µM in assay [4]; 15.7 µM in assay [5]; 20.3 µM in assay [6]; 7.29 µM in [7]. In addition, the TGI was 5.89 µM in assay [8], more than 100 µM in assay [9] and 12.8 µM in assay [10].
On to `COc1cc(-c2cn(-c3ccc(Cl)cc3)c(=O)n2-c2ccccc2)cc(OC)c1OC`, for which the GI50 in assay [1] is 33.7 µM; in assay [2] it was 3.35 µM; in assay [3] it was more than 100 µM; in assay [4], 61.5 µM; in [5], 82.1 µM; in assay [6], more than 82.6 µM. Also, the figures for the GI50 in assay [7], in assay [8] and in [10] were more than 80.9 µM, 24.1 µM and 40.8 µM, respectively. The TGI in assay [1] was more than 100 µM; in assay [2], more than 38.5 µM; in assay [3], more than 100 µM; in assay [4], more than 100 µM; in assay [5], more than 100 µM; in [6], more than 100 µM. The TGI in assay [7] was more than 100 µM; in assay [8], more than 88.5 µM; in assay [9], more than 100 µM; in assay [10] it was more than 100 µM.
In the case of `CCN1C(=O)N(CC)C2C1NN=c1s/c(=C\c3ccc([N+](=O)[O-])cc3)c(=O)n12` (stereo unspecified), the GI50 in assay [1] was 0.506 µM; in [2], 0.31 µM; in assay [3], more than 35.4 µM; in [4] it was 0.338 µM; in [5], 2.16 µM; in assay [6], 1.17 µM. In addition, the GI50 in assay [7] is 0.369 µM; in assay [8] it was 2.19 µM; in [9], 0.385 µM; in assay [10], 0.885 µM. Besides, the TGI in assay [1] is more than 100 µM; in assay [2], 1.12 µM; in [3], more than 100 µM; in assay [4], 2.83 µM; in assay [5], more than 71 µM; in assay [6], 70 µM. The TGI is more than 100 µM in assay [7], more than 100 µM in assay [8], more than 66.4 µM in [9] and more than 91.1 µM in assay [10].
As for `C=C1C(=O)C23C(O)C1CCC2C12CO[C@]3(O)[C@@H](O)C1C(C)(C)CCC2O` (stereo partly specified), the TGI in [1] is 32.2 µM; in assay [2], more than 100 µM; in assay [3], 34.3 µM; in assay [4] it was 28.2 µM; in assay [5], 34.9 µM; in assay [6], 23.8 µM. The TGI is 29.2 µM in assay [7], 8.99 µM in assay [8], more than 100 µM in [9] and 20.5 µM in assay [10].
As to `CC1OC(OC2C(OC3CCC4(C)C(CCC5(C)C4CC=C4C6CC(C)(C)CCC6(CO)C(O)CC45C)C3(C)C)OC(C(=O)O)C(OC3OC(COC4OC(CO)C(O)C(O)C4O)C(O)C(O)C3O)C2O)C(O)C(O)C1O` (stereo unspecified), the GI50 in [1] was 10.2 µM; in assay [2], 1.5 µM; in [3] it was 16.1 µM; in assay [4], 8.48 µM; in [5] it was 3.35 µM; in [6] it was 13.2 µM. Further, the GI50 in [7] was 12.1 µM; in [8], 3.56 µM; in assay [9], 1.97 µM; in assay [10], 13.5 µM. Further, the TGI in assay [1] stood at 22.1 µM; in assay [2], 3.53 µM; in assay [3] it was 28.4 µM; in assay [4] it was 20.5 µM; in assay [5], 16.1 µM; in assay [6] it was 26.3 µM. Moreover, the TGI was 24.5 µM in [7], 15.3 µM in assay [8], 5.63 µM in assay [9] and 28.5 µM in assay [10].
On to `Oc1ccc(-c2nc(-c3ccc(F)cc3)c(-c3ccncc3)[nH]2)cc1`, for which the GI50 in [1] was 25.5 µM; in [2], 18.1 µM; in assay [3], 7.89 µM; in assay [4], 25.7 µM; in [5], 28.3 µM; in [6], 13.9 µM. The GI50 was 18.8 µM in [7], 17.2 µM in assay [8], 6.98 µM in [9] and 22.1 µM in assay [10]. Besides, the TGI in assay [1] is more than 100 µM; in [2] it was 67.1 µM; in [3], more than 100 µM; in assay [4], more than 100 µM; in assay [5], more than 100 µM; in assay [6], 63.1 µM. For the same molecule, the TGI in assay [7] is 59.7 µM; in assay [8] it was more than 100 µM; in assay [9], 52.8 µM; in assay [10], more than 100 µM.
Take `O=[N+]([O-])c1ccc([I+]c2ccccc2)cc1`: the GI50 in assay [1] is 1.71 µM; in [2], 3.15 µM; in [3], 3.61 µM; in assay [4], 1.77 µM; in assay [5], 1.45 µM; in [6], 1.6 µM. For the same molecule, the GI50 in assay [7] is 1.78 µM; in assay [10], 2.78 µM. Besides, the TGI in [1] is 10.9 µM and 3.43 µM; in assay [2], 27.4 µM and 9.73 µM; in assay [3] it was 26.9 µM and 15.5 µM; in assay [4] it was 14.3 µM and 3.47 µM; in assay [5], 19.1 µM and 3.2 µM; in assay [6], 13.9 µM and 4.42 µM. Moreover, the TGI in assay [7] is 11.9 µM and 3.93 µM; in assay [8] it was 23.5 µM and 25.1 µM; in [9], more than 47.8 µM; in assay [10], 12.2 µM and 10.3 µM.

The values above are taken from PubChem BioAssay (NCI).
